This passage reports IC50 results from patent publication US9265773B2, “Tetracyclic heterocycle compounds and methods of use thereof for the treatment of viral diseases” (priority 2011, dated 2016).

SMILES strings stand for the structures.

For test [1], the system named is HCV replicon genotype 1a. The experiment in a line: microbe, parasite or virus in culture. The class given is cell-based. The settings on record: genotype 1a replicon cells, incubated 96 hours, NS3/4A ELISA readout. On the technique in general: A replicon is a self-replicating genome or part of one, used to study replication in cells.
Test [2] relates to HCV replicon genotype 1b. The experiment in a line: microbe, parasite or virus in culture. Type of test: cell-based. The settings on record: genotype 1b replicon cells, incubated 96 hours, NS3/4A ELISA readout.

Broadly, the IC50 is the concentration that gives 50% inhibition. Low values mean greater potency in that assay, high ones weaker potency in that assay. `CNC(=O)c1c(-c2ccc(F)cc2)oc2cc(N(CCCF)S(C)(=O)=O)c(-c3ncc4c(n3)-c3cc5ccccc5n3CO4)cc12` [Compound 197]: the IC50 in test [1] (Hepatitis C virus, 96 h) is 2.6 nM; in test [2] (Hepatitis C virus, 96 h), 4.4 nM.
The corresponding values for `CCOC(=O)CNCC1Oc2ccc(-c3cc4c(C(=O)NC)c(-c5ccc(F)cc5)oc4cc3N(C)S(C)(=O)=O)nc2-c2cc3c(F)cccc3n21` (stereo not shown) [Compound 119] are 17 nM and 5.1 nM.
The corresponding values for `CNC(=O)c1c(-c2ccc(F)cc2)oc2cc(N(C)S(C)(=O)=O)c(-c3ccc4c(n3)-c3c(Cl)c5c(Cl)cccc5n3CO4)cc12` [Compound 57] are 11 nM and 13 nM.
As to `CNC(=O)c1c(-c2ccc(F)cc2)oc2cc(N)c(-c3ccc4c(n3)-c3cc5c(F)cccc5n3CO4)cc12` [Compound 163, 6-amino-5-(11-fluoro-6H-pyrido[2′,3′:5,6][1,3]oxazino[3,4-a]indol-2-yl)-2-(4-fluorophenyl)-N-methylbenzofuran-3-carboxamide], the IC50 came out at 1.1 nM in test [1] (Hepatitis C virus, 96 h) and 2.2 nM in test [2] (Hepatitis C virus, 96 h).
For `CNC(=O)c1c(-c2ccc(F)cc2)oc2cc(-c3ccoc3)c(-c3ccc4c(n3)-c3cc5c(F)cccc5n3CO4)cc12` [Compound 167], in that order: 21 nM and 17 nM.
The corresponding values for `CNC(=O)c1c(-c2ccc(F)cc2)oc2cc(N(C)S(C)(=O)=O)c(-c3ccc4c(c3)-c3[nH]c5ccccc5c3C(C)(C)O4)cc12` [Compound 61, 5-(6,6-dimethyl-6,11-dihydrochromeno[4,3-b]indol-2-yl)-2-(4-fluorophenyl)-N-methyl-6-(N-methylmethylsulfonamido)benzofuran-3-carboxamide] are 6.5 nM and 11 nM.
The corresponding values for `CNC(=O)c1c(-c2ccc(F)cc2)oc2cc(N(C)S(C)(=O)=O)c(-c3ccc4c(c3)-c3nc5ccccc5n3CO4)cc12` [Compound 133, 5-(6H-benzo[e]benzo[4,5]imidazo[1,2-c][1,3]oxazin-2-yl)-2-(4-fluorophenyl)-N-methyl-6-(N-methylmethylsulfonamido)benzofuran-3-carboxamide] are 2.6 nM and 3.2 nM.
As for `CNC(=O)c1c(-c2ccc(F)cc2)oc2cc(-c3ccsc3)c(-c3ccc4c(n3)-c3cc5c(F)cccc5n3CO4)cc12` [Compound 166], the IC50 turned out to be 69 nM in test [1] (Hepatitis C virus, 96 h) and 27 nM in test [2] (Hepatitis C virus, 96 h).
The corresponding values for `CNC(=O)c1c(-c2ccc(F)cc2)oc2cc(N(C)S(C)(=O)=O)c(-c3ccc4c(n3)-c3cc5cc(F)ccc5n3CO4)cc12` [Compound 3] are 2 nM and 3.7 nM.
Turning to `CNC(=O)c1c(-c2ccc(F)cc2)oc2cc(N(C)S(C)(=O)=O)c(-c3ccc4c(n3)-c3cc5c(CN(C)C)cccc5n3CO4)cc12` [Compound 70], the IC50 in test [1] (Hepatitis C virus, 96 h) was found to be 71 nM; in test [2] (Hepatitis C virus, 96 h), 18 nM.
In the case of `CN(c1cc2oc(-c3ccc(F)cc3)c(-c3nnco3)c2cc1-c1ccc2c(n1)-c1cc3c(F)cccc3n1CO2)S(C)(=O)=O` [Compound 159, N-(5-(11-fluoro-6H-pyrido[2′,3′:5,6][1,3]oxazino[3,4-a]indol-2-yl)-2-(4-fluorophenyl)-3-(1,3,4-oxadiazol-2-yl)benzofuran-6-yl)-N-methylmethanesulfonamide], the IC50 in test [1] (Hepatitis C virus, 96 h) was 11 nM; in test [2] (Hepatitis C virus, 96 h), 22 nM.
For `CNC(=O)c1c(-c2ccc(F)cc2)oc2cc(N3CCCC3=O)c(-c3ncc4c(n3)-c3cc5c(F)cccc5n3CO4)cc12` [Compound 170], in that order: 54 nM and 13 nM.
For `CNC(=O)c1c(-c2ccc(F)cc2)oc2cc(N(C)S(C)(=O)=O)c(-c3ncc4c(n3)-c3cc5c(F)cccc5n3CCO4)cc12` [Compound 8], in that order: 1.6 nM and 2.1 nM.
The corresponding values for `CNC(=O)c1c(-c2ccc(F)cc2)oc2cc(N(C)S(C)(=O)=O)c(-c3ncc4c(n3)-c3cc5c(F)cccc5n3CCCO4)cc12` [Compound 40] are 2 nM and 2.2 nM.
Consider `CNC(=O)c1c(-c2ccc(F)cc2)oc2cc(N3CCOC3=O)c(-c3ncc4c(n3)-c3cc5c(F)cccc5n3CO4)cc12` [Compound 173, 5-(11-fluoro-6H-pyrimido[4′,3′:5,6][1,3]oxazino[3,4-a]indol-2-yl)-2-(4-fluorophenyl)-N-methyl-6-(2-oxooxazolidin-3-yl)benzofuran-3-carboxamide], for which the IC50 in test [1] (Hepatitis C virus, 96 h) came out at 8.4 nM; in test [2] (Hepatitis C virus, 96 h), 2.1 nM.
For `CNC(=O)c1c(-c2ccc(F)cc2)oc2cc(N(C)S(C)(=O)=O)c(-c3ccc4c(c3)-c3cc5ccccc5n3CC(C)(O)CO4)cc12` (stereo not shown) [Compound 78, 2-(4-fluorophenyl)-5-(7-hydroxy-7-methyl-7,8-dihydro-6H-benzo[2,3][1,5]oxazocino[5,4-a]indol-2-yl)-N-methyl-6-(N-methylmethylsulfonamido)benzofuran-3-carboxamide], in that order: 5.7 nM and 3.5 nM.
Consider `CNC(=O)c1c(-c2ccc(F)cc2)oc2cc(N(C)S(C)(=O)=O)c(-c3cc4c(cn3)OCn3c-4cc4c(F)cccc43)cc12` [Compound 16], for which the IC50 in test [1] (Hepatitis C virus, 96 h) turned out to be 2.1 nM; in test [2] (Hepatitis C virus, 96 h) it was 2.3 nM.
The corresponding values for `CNC(=O)c1c(-c2ccc(F)cc2)oc2cc(N(C)S(C)(=O)=O)c(-c3ccc4c(n3)-c3c(Cl)c5ccccc5n3CO4)cc12` [Compound 55, 5-(12-chloro-6H-pyrido[2′,3′:5,6][1,3]oxazino[3,4-a]indol-2-yl)-2-(4-fluorophenyl)-N-methyl-6-(N-methylmethylsulfonamido)benzofuran-3-carboxamide] are 57 nM and 49 nM.
`CNC(=O)c1c(-c2ccc(F)cc2)oc2cc(N(C)S(C)(=O)=O)c(-c3ccc4c(n3)-c3cc5c(F)cccc5n3C(CN(C)C)O4)cc12` (stereo not shown) [Compound 122, 5-(6-((dimethylamino)methyl)-11-fluoro-6H-pyrido[2′,3′:5,6][1,3]oxazino[3,4-a]indol-2-yl)-2-(4-fluorophenyl)-N-methyl-6-(N-methylmethylsulfonamido)benzofuran-3-carboxamide]: the IC50 in test [1] is 5.1 nM; in test [2] it was 5.2 nM.
With `CNC(=O)c1c(-c2ccc(F)cc2)oc2cc(N(C)S(C)(=O)=O)c(-c3ccc4c(c3)-c3cc5ccccc5n3C(C3CC3)O4)cc12` (stereo not shown) [Compound 132], the IC50 in test [1] (Hepatitis C virus, 96 h) turned out to be 4.8 nM; in test [2] (Hepatitis C virus, 96 h), 7.9 nM.
For `CNC(=O)c1c(-c2ccc(F)cc2)oc2cc(N(C)S(C)(=O)=O)c(-c3ccc4c(c3)-c3[nH]c5ccccc5c3C3(CCCC3)O4)cc12` [Compound 65], in that order: 11 nM and 19 nM.
The corresponding values for `CN(c1cc2oc(-c3ccc(F)cc3)c(C(N)=O)c2cc1-c1ccc2c(n1)-c1cc3c(F)cccc3n1CO2)S(C)(=O)=O` [Compound 154] are 2.7 nM and 2.2 nM.
The corresponding values for `CNC(=O)c1c(-c2ccc(F)cc2)oc2cc(N(C)S(C)(=O)=O)c(-c3ccc4c(c3)-c3nc5cccnc5n3CO4)cc12` [Compound 135] are 2.4 nM and 2.4 nM.
As for `CNC(=O)c1c(-c2ccc(F)cc2)oc2cc(N(C)S(C)(=O)=O)c(-c3ccc4c(n3)-c3cc5cc(C#N)ccc5n3CO4)cc12` [Compound 13], the IC50 in test [1] (Hepatitis C virus, 96 h) is 2 nM; in test [2] (Hepatitis C virus, 96 h), 2.2 nM.
In the case of `CNC(=O)c1c(-c2ccc(F)cc2)oc2cc(N(CCCF)S(C)(=O)=O)c(-c3ccc4c(n3)-c3cc5c(C#N)cccc5n3CO4)cc12` [Compound 194], the IC50 came to 1.9 nM in test [1] (Hepatitis C virus, 96 h) and 2.3 nM in test [2] (Hepatitis C virus, 96 h).
For `CNC(=O)c1c(-c2ccc(F)cc2)oc2cc(N(C)S(C)(=O)=O)c(-c3ccc4c(n3)-c3cc5c(C(N)=O)cccc5n3CO4)cc12` [Compound 73, 2-(2-(4-fluorophenyl)-3-(methylcarbamoyl)-6-(N-methylmethylsulfonamido)benzofuran-5-yl)-6H-pyrido[2′,3′:5,6][1,3]oxazino[3,4-a]indole-11-carboxamide], in that order: 625 nM and 36 nM.
For the molecule `CCOC(=O)C(C)NCC1Oc2ccc(-c3cc4c(C(=O)NC)c(-c5ccc(F)cc5)oc4cc3N(C)S(C)(=O)=O)nc2-c2cc3c(F)cccc3n21` (stereo not shown) [Compound 118], the IC50 was found to be 19 nM in test [1] (Hepatitis C virus, 96 h) and 4 nM in test [2] (Hepatitis C virus, 96 h).
Take `CNC(=O)c1c(-c2ccc(F)cc2)oc2cc(N(C)S(C)(=O)=O)c(-c3ccc4c(n3)-c3cc5c(F)cccc5n3C(CN)O4)cc12` (stereo not shown) [Compound 115, 5-(6-(aminomethyl)-11-fluoro-6H-pyrido[2′,3′:5,6][1,3]oxazino[3,4-a]indol-2-yl)-2-(4-fluorophenyl)-N-methyl-6-(N-methylmethylsulfonamido)benzofuran-3-carboxamide]: the IC50 in test [1] stood at 8.9 nM; in test [2], 19 nM.
For the molecule `CNC(=O)c1c(-c2ccc(F)cc2)oc2cc(N(C)S(C)(=O)=O)c(-c3ccc4c(n3)-c3cc5c(Cl)cccc5n3CO4)cc12` [Compound 14], the IC50 was 3 nM in test [1] (Hepatitis C virus, 96 h) and 6.2 nM in test [2] (Hepatitis C virus, 96 h).
For `CNC(=O)c1c(-c2ccc(F)cc2)oc2cc(N(CC(C)O)S(C)(=O)=O)c(-c3ccc4c(n3)-c3cc5c(F)cccc5n3CO4)cc12` (stereo not shown) [Compound 202], the IC50 turned out to be 2.8 nM in test [1] (Hepatitis C virus, 96 h) and 8.8 nM in test [2] (Hepatitis C virus, 96 h).
With `CNC(=O)c1c(-c2ccc(F)cc2)oc2cc(N(C)S(C)(=O)=O)c(-c3ccc4c(n3)-c3cc5c(F)cccc5n3C(C(N)=O)O4)cc12` (stereo not shown) [Compound 105, 11-fluoro-2-(2-(4-fluorophenyl)-3-(methylcarbamoyl)-6-(N-methylmethylsulfonamido)benzofuran-5-yl)-6H-pyrido[2′,3′:5,6][1,3]oxazino[3,4-a]indole-6-carboxamide], the values for the IC50 in test [1] and in test [2] were 1.4 nM and 0.9 nM, respectively.
For `CNC(=O)c1c(-c2ccc(F)cc2)oc2cc(N(C)S(C)(=O)=O)c(-c3ccc4c(c3)-c3cc5ccccc5n3CC(NCCN(C)C)CO4)cc12` (stereo not shown) [Compound 80, 5-(7-((2-(dimethylamino)ethyl)amino)-7,8-dihydro-6H-benzo[2,3][1,5]oxazocino[5,4-a]indol-2-yl)-2-(4-fluorophenyl)-N-methyl-6-(N-methylmethylsulfonamido)benzofuran-3-carboxamide], the IC50 turned out to be 18 nM in test [1] (Hepatitis C virus, 96 h) and 15 nM in test [2] (Hepatitis C virus, 96 h).
